In patent publication US20260258035A1, “FIVE-MEMBERED AND SIX-MEMBERED NITROGEN-CONTAINING COMPOUND, AND INTERMEDIATE, PREPARATION METHOD AND USE THEREOF” (HANGZHOU SYNRX THERAPEUTICS BIOMEDICAL TECHNOLOGY CO., LTD., priority 2022, published 2026) one finds IC50 data, which are given here for 16 molecules.

SMILES strings stand for the structures. Like-named read-outs stand apart in the source and are kept apart here.

In assay [1] the test system is Human breast squamous carcinoma cells HCC1806. The assay is described as follows: Cell function assay (In-Cell Western, PAR/pADPr after MMS). The settings on record: read-out: IC50 (nM) in cell function assay. The assay is classed as cell-based. A digest of the protocol:
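HCC1806 cells adhered 24 h at 37 °C, 5% CO2, then were pretreated 1 h with compound (30000 nM down to 1 nM, plus 0 nM) or DMSO. MMS was then added at 0.5 mM final for 1 h before In-Cell Western detection of PAR/pADPr.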

A further assay addresses PARG (Homo sapiens, UniProt Q86W56). The assay is described as follows: Biochemical assay (PARG, TFMU-ADPr substrate).
The next assay concerns HCC1806. Put plainly: Cell viability assay (CellTiter-Glo). The assay is classed as cell-based, Human. The settings on record: HCC1806, 7 days, CellTiter-Glo, read-out: IC50 (nM) in cell viability assay. In general terms: Cellular ATP, detected with luciferase, serves as a proxy for viable cell number.
Setting [2] is: HCC1806, In-Cell Western, MMS treatment.
Where [3] appears, read: HCC1806, compound 1 h then 0.5 mM MMS 1 h, PAR/pADPr antibody, In-Cell Western.
[4] abbreviates: 4 nM PARG, 66.2 uM TFMU-ADPr, 3 min at room temperature.

Sequence of PARG (Q86W56 whole entry): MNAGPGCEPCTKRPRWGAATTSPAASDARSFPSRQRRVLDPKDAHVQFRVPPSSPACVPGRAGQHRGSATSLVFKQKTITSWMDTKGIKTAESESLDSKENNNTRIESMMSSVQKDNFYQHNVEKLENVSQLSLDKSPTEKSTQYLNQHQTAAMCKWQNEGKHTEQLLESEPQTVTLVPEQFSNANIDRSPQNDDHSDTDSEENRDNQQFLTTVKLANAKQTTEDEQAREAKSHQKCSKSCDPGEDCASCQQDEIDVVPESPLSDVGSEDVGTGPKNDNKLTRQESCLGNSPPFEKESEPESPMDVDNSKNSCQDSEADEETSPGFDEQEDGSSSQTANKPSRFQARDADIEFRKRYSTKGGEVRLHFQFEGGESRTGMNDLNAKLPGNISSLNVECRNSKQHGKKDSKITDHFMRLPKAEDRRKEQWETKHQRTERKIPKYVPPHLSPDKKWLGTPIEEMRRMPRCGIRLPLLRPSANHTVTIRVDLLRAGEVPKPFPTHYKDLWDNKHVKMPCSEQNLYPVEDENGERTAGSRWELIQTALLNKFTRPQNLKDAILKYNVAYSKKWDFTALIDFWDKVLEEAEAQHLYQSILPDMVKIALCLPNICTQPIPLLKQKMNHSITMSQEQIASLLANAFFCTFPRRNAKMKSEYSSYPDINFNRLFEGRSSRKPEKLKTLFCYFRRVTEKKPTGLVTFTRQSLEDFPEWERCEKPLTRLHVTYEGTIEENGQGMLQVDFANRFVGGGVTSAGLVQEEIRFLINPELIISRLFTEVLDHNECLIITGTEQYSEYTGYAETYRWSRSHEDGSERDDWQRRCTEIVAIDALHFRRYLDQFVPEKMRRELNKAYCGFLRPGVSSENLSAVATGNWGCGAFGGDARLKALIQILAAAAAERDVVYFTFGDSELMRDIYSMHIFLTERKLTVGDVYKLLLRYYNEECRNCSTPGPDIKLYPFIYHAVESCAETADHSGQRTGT

As usually defined, the IC50 is the concentration that gives 50% inhibition. For `CC(C)C(=O)N1CCN(c2c(F)c(S(=O)(=O)NC3(C#N)CC3)cn3c(-c4nnc(C(F)F)s4)ncc23)CC1` [Example 52, N-(1-cyanocyclopropyl)-3-(5-(difluoromethyl)-1,3,4-thiadiazol-2-yl)-7-fluoro-8-(4-isobutyrylpiperazin-1-yl)imidazo[1,5-a]pyridine-6-sulfonamide], the IC50 in assay [1] (setting [2]) is 53.2 nM; in assay [1] (setting [3]), 100 to 500 nM; against PARG (setting [4]), below 100 nM; against PARG (PARG, TFMU-ADPr substrate), 3.66 nM; with HCC1806, 738 nM; in the assay with HCC1806 (Homo sapiens, HCC1806, 168 h), 500 to 5000 nM.
Consider `CC(C)C(=O)N1CCN(c2cc(S(=O)(=O)NC34CC(C3)C4)cn3c(-c4nnc(C(F)F)s4)ncc23)CC1` [Example 54, N-(bicyclo[1.1.1]pentan-1-yl)-3-(5-(difluoromethyl)-1,3,4-thiadiazol-2-yl)-8-(4-isobutyrylpiperazin-1-yl)imidazo[1,5-a]pyridine-6-sulfonamide], for which the IC50 was 26.5 nM in assay [1] (setting [2]); below 100 nM in assay [1] (setting [3]); below 100 nM on PARG (setting [4]); 11.4 nM on PARG (PARG, TFMU-ADPr substrate); 9380 nM with HCC1806; 5000 to 30000 nM in the assay on HCC1806 (Homo sapiens, HCC1806, 168 h).
Consider `CC1(NS(=O)(=O)c2cc(N3CCC4(CC3)COC4)c3cnc(-c4nnc(C(F)F)s4)n3c2)COC1` [Example 56, 3-(5-(difluoromethyl)-1,3,4-thiadiazol-2-yl)-N-(3-methyloxetan-3-yl)-8-(2-oxa-7-azaspiro[3.5]nonan-7-yl)imidazo[1,5-a]pyridine-6-sulfonamide], for which the IC50 in assay [1] (setting [2]) is 22.9 nM; in assay [1] (setting [3]), below 100 nM; on PARG (setting [4]), below 100 nM; against PARG (PARG, TFMU-ADPr substrate), 0.86 nM; in the assay with HCC1806 it was 802 nM; in the assay on HCC1806 (Homo sapiens, HCC1806, 168 h) it was 500 to 5000 nM.
Regarding `[2H]C1([2H])CCC1([2H])NS(=O)(=O)c1cc(N2CCN(C(=O)C(C)C)CC2)c2cnc(-c3nnc(C(F)F)s3)n2c1` (stereo not shown) [Example 57, N-(cyclobutyl-1,2,2-d3)-3-(5-(difluoromethyl)-1,3,4-thiadiazol-2-yl)-8-(4-isobutyrylpiperazin-1-yl)imidazo[1,5-a]pyridine-6-sulfonamide], the IC50 in assay [1] (setting [2]) was 1110 nM; in assay [1] (setting [3]) it was above 1000 nM; against PARG (setting [4]), below 100 nM; against PARG (PARG, TFMU-ADPr substrate), 21.2 nM; in the assay on HCC1806 (Homo sapiens, HCC1806, 168 h), above 30000 nM.
In the same order, the values of `CC(C)C(=O)N1CCN(c2cc(S(=O)(=O)NC3(C)CCOC3)cn3c(-c4nnc(C(F)F)s4)ncc23)CC1` (stereo not shown) [Example 58, 3-(5-(difluoromethyl)-1,3,4-thiadiazol-2-yl)-8-(4-isobutyrylpiperazin-1-yl)-N-(3-methyltetrahydrofuran-3-yl)imidazo[1,5-a]pyridine-6-sulfonamide] are 2870 nM, above 1000 nM, below 100 nM, 25.1 nM and above 30000 nM.
For the molecule `CC1(O)CCN(c2cc(S(=O)(=O)NC3(C#N)CC3)cn3c(-c4nnc(C(F)F)s4)ncc23)CC1` [Example 65, N-(1-cyanocyclopropyl)-3-(5-(difluoromethyl)-1,3,4-thiadiazol-2-yl)-8-(4-hydroxy-4-methylpiperidin-1-yl)imidazo[1,5-a]pyridine-6-sulfonamide], the IC50 in assay [1] (setting [2]) is 122 nM; in assay [1] (setting [3]) it was 100 to 500 nM; against PARG (setting [4]), below 100 nM; against PARG (PARG, TFMU-ADPr substrate), 7.02 nM; in the assay on HCC1806, 6000 nM; with HCC1806 (Homo sapiens, HCC1806, 168 h), 5000 to 30000 nM.
With `CC(C)C(=O)N1CCN(c2cc(S(=O)(=O)NC3CC3)cn3c(-c4nnc(C(F)F)s4)ncc23)CC1` [Example 69, N-cyclopropyl-3-(5-(difluoromethyl)-1,3,4-thiadiazol-2-yl)-8-(4-isobutyrylpiperazin-1-yl)imidazo[1,5-a]pyridine-6-sulfonamide], the IC50 in assay [1] (setting [2]) was 9.05 nM; in assay [1] (setting [3]) it was below 100 nM; on PARG (setting [4]), below 100 nM; against PARG (PARG, TFMU-ADPr substrate), 20 nM; with HCC1806 it was 432 nM; in the assay on HCC1806 (Homo sapiens, HCC1806, 168 h), below 500 nM.
Regarding `C[C@@H]1CN(c2cc(S(=O)(=O)NC3(C#N)CC3)cn3c(-c4nnc(C(F)F)s4)ncc23)CCN1C(=O)C1CC1` [Example 75, (R)-N-(1-cyanocyclopropyl)-8-(4-(cyclopropanecarbonyl)-3-methylpiperazin-1-yl)-3-(5-(difluoromethyl)-1,3,4-thiadiazol-2-yl)imidazo[1,5-a]pyridine-6-sulfonamide], the IC50 in assay [1] (setting [2]) was 3.78 nM; in assay [1] (setting [3]), below 100 nM; on PARG (setting [4]), below 100 nM; against PARG (PARG, TFMU-ADPr substrate) it was 13.2 nM; in the assay on HCC1806, 370 nM; with HCC1806 (Homo sapiens, HCC1806, 168 h), below 500 nM.
As for `CC1(C(=O)N2CCN(c3cc(S(=O)(=O)NC4(C#N)CC4)cn4c(-c5nnc(C(F)F)s5)ncc34)CC2)CC1` [Example 76, N-(1-cyanocyclopropyl)-3-(5-(difluoromethyl)-1,3,4-thiadiazol-2-yl)-8-(4-(1-methylcyclopropane-1-carbonyl)piperazin-1-yl)imidazo[1,5-a]pyridine-6-sulfonamide], the IC50 in assay [1] (setting [2]) is 3.59 nM; in assay [1] (setting [3]) it was below 100 nM; against PARG (setting [4]), below 100 nM; against PARG (PARG, TFMU-ADPr substrate), 13.8 nM; with HCC1806, 450 nM; with HCC1806 (Homo sapiens, HCC1806, 168 h), below 500 nM.
For `C[C@@H]1CN(c2cc(S(=O)(=O)NC3(C#N)CC3)cn3c(-c4nnc(C(F)F)s4)ncc23)C[C@H](C)N1C(=O)C1CC1` [Example 78, N-(1-cyanocyclopropyl)-8-((3R,5S)-4-(cyclopropanecarbonyl)-3,5-dimethylpiperazin-1-yl)-3-(5-(difluoromethyl)-1,3,4-thiadiazol-2-yl)imidazo[1,5-a]pyridine-6-sulfonamide], the 50% inhibitory concentration (IC50) in assay [1] (setting [2]) is 7.34 nM; in assay [1] (setting [3]), below 100 nM; at PARG (setting [4]) it was below 100 nM; against PARG (PARG, TFMU-ADPr substrate), 7.59 nM; with HCC1806, 866 nM; in the assay with HCC1806 (Homo sapiens, HCC1806, 168 h), 500 to 5000 nM.
As to `C[C@@H]1CN(c2cc(S(=O)(=O)NC3(C#N)CC3)cn3c(-c4nnc(C(F)(F)F)s4)ncc23)CCN1C(=O)C1(C)CC1` [Example 80, (R)-N-(1-cyanocyclopropyl)-8-(3-methyl-4-(1-methylcyclopropane-1-carbonyl)piperazin-1-yl)-3-(5-(trifluoromethyl)-1,3,4-thiadiazol-2-yl)imidazo[1,5-a]pyridine-6-sulfonamide], the IC50 is 7.57 nM in assay [1] (setting [2]); below 100 nM in assay [1] (setting [3]); below 100 nM on PARG (setting [4]); 28.8 nM on PARG (PARG, TFMU-ADPr substrate); 764 nM in the assay with HCC1806; 500 to 5000 nM in the assay on HCC1806 (Homo sapiens, HCC1806, 168 h).
Turning to `C[C@@H]1CN(c2cc(S(=O)(=O)NC3(C#N)CC3)cn3c(-c4nnc(C(F)F)s4)ncc23)CCN1C(=O)C(C)(C)C` [Example 84, (R)-N-(1-cyanocyclopropyl)-3-(5-(difluoromethyl)-1,3,4-thiadiazol-2-yl)-8-(3-methyl-4-pivaloylpiperazin-1-yl)imidazo[1,5-a]pyridine-6-sulfonamide], the IC50 is 6.85 nM in assay [1] (setting [2]); below 100 nM in assay [1] (setting [3]); below 100 nM on PARG (setting [4]); 11 nM against PARG (PARG, TFMU-ADPr substrate); 472 nM in the assay with HCC1806; below 500 nM in the assay with HCC1806 (Homo sapiens, HCC1806, 168 h).
As to `C[C@@H]1CN(c2cc(S(=O)(=O)NC3(C#N)CC3)cn3c(-c4nnc(C(F)F)s4)ncc23)CCN1C(=O)C(C)(C)F` [Example 94, (R)-N-(1-cyanocyclopropyl)-3-(5-(difluoromethyl)-1,3,4-thiadiazol-2-yl)-8-(4-(2-fluoro-2-methylpropanoyl)-3-methylpiperazin-1-yl)imidazo[1,5-a]pyridine-6-sulfonamide], the IC50 in assay [1] (setting [2]) was 23.4 nM; in assay [1] (setting [3]) it was below 100 nM; at PARG (setting [4]), below 100 nM; on PARG (PARG, TFMU-ADPr substrate), 9.55 nM; in the assay on HCC1806, 350 nM; with HCC1806 (Homo sapiens, HCC1806, 168 h), below 500 nM.
With `CC(C)C(=O)N1CCN(c2cc(S(=O)(=O)NC3(C)CC3)cn3c(-c4nnc(C(F)F)s4)nnc23)CC1` [Example 99, 3-(5-(difluoromethyl)-1,3,4-thiadiazol-2-yl)-8-(4-isobutyrylpiperazin-1-yl)-N-(1-methylcyclopropyl)-[1,2,4]triazolo[4,3-a]pyridine-6-sulfonamide], the 50% inhibitory concentration (IC50) in assay [1] (setting [2]) is 26.8 nM; in assay [1] (setting [3]) it was below 100 nM; against PARG (setting [4]), below 100 nM; against PARG (PARG, TFMU-ADPr substrate), 6.51 nM; in the assay with HCC1806, 372 nM; with HCC1806 (Homo sapiens, HCC1806, 168 h), below 500 nM.
On to `CC(C)C(=O)N1CCN(c2cc(S(=O)(=O)NC3(CF)CC3)cn3c(-c4nnc(C(F)F)s4)nnc23)CC1` [Example 100, 3-(5-(difluoromethyl)-1,3,4-thiadiazol-2-yl)-N-(1-(fluoromethyl)cyclopropyl)-8-(4-isobutyrylpiperazin-1-yl)-[1,2,4]triazolo[4,3-a]pyridine-6-sulfonamide], for which the IC50 is 4.96 nM in assay [1] (setting [2]); below 100 nM in assay [1] (setting [3]); below 100 nM against PARG (setting [4]); 1.99 nM on PARG (PARG, TFMU-ADPr substrate); 448 nM in the assay with HCC1806; below 500 nM in the assay on HCC1806 (Homo sapiens, HCC1806, 168 h).
Turning to `C#CC1(NS(=O)(=O)c2cc(N3CCN(C(=O)C(C)C)CC3)c3nnc(-c4nnc(C(F)F)s4)n3c2)CC1` [Example 102, 3-(5-(difluoromethyl)-1,3,4-thiadiazol-2-yl)-N-(1-ethynylcyclopropyl)-8-(4-isobutyrylpiperazin-1-yl)-[1,2,4]triazolo[4,3-a]pyridine-6-sulfonamide], the IC50 in assay [1] (setting [2]) was 32.1 nM; in assay [1] (setting [3]) it was below 100 nM; at PARG (setting [4]), below 100 nM; at PARG (PARG, TFMU-ADPr substrate), 2.54 nM; with HCC1806, 5000 nM; in the assay with HCC1806 (Homo sapiens, HCC1806, 168 h) it was 5000 to 30000 nM.
